One experiment deals with Jurkat cells. Put plainly: comet assay (single cell gel electrophoresis): protection of DNA of intact cells exposed to H2O2. Type of experiment: cell-based. The conditions noted are these: H2O2 generated by glucose oxidase; for protective activity on cells against oxidative stress (decrease of induced DNA damage): 10 min exposure. How it is done: In the analysis of the antioxidant activity of the extracts I, II, III and IV, as well as, of the pure Compounds 1-9, a method based on measuring the relative protection of DNA of intact cells was performed. This was done with the use of Jurkat cell cultures (a cell line of T-lymph-cells), which were grown in RPMI-1640 enriched with fetal bovine calf serum (10%), penicillin, streptomycin and glutamine. The cells were incubated with the extracts or the purified compounds in the presence of glucose oxidase (60 ng/100 ml) used for the generation of H2O2. After exposure of the cells to H2O2 for 10 min, the degree of DNA damage was evaluated using a specialized method, “single cell gel electrophoresis”, also known as the “comet assay”. The comet assay method is described in the following references: 1. Barbouti A. et al., “DNA Damage And Apoptosis In Hydrogen Peroxide-Exposed Jurkat Cells: Bolus Addition Versus Continuous Generation Of H2O2,” Free Radical Biology and Medicine, 33(5): 691-702, Elsevier Press (2002); as well as Panagiotidis M. et al. (1999) Free Radical Biology and Medicine, 26(5-6): 548-556; Doulias P-T. et al. (2001) Free Radical Biology and Medicine, 30(6): 679-685; Tselepis A. et al. (2001) Free Radical Biology and Medicine, 30(12): 1357-1364; and Barbouti A. et al. (2001) Free Radical Biology and Medicine, 31(4): 490-498 5.
Jurkat cells—a cell line of lymphocytic origin—were exposed to continuously generated hydrogen peroxide, H2O2 and the effects of this treatment on cellular DNA was evaluated according to the references above. […]
The graphic results of the “comet assay” for the waste water extract (IV) and tyrosol (Compound 4), 2-(5-ethylidene-2-oxo-tetrahydropyran-4-yl) acetic acid (from the compound class of lactones or Compound 6) and hydroxytyrosol (Compound 7) are depicted below in FIGS. 3-6, respectively. […] The values are expressed as mean ±SD (n=3).

Experiment [1] is described as follows: antioxidant ability by usual chemical methods (e.g. DPPH). (In general: DPPH is a stable violet radical that fades when it is reduced.)

Structures are written as SMILES.

Take `CC=C1COC(=O)CC1CC(=O)O` (stereo not shown) [2-(5-ethylidene-2-oxo-tetrahydropyran-4-yl) acetic acid]: in the experiment on Jurkat cells, the “dose dependence of protection” value is recorded as “dose-dependent protection” and the “protective activity on cells against oxidative stress (decrease of induced DNA damage)” value was “strong protective activity”. In experiment [1], the antioxidant ability entry is “does not show any antioxidant ability”.
Turning to `OCCc1ccc(O)cc1` [tyrosol, Tyrosol], the “protective activity on cells against oxidative stress (decrease of induced DNA damage)” value in the experiment with Jurkat cells is “not”.

(Values after patent US6906100B2, “Compounds and compositions derived from olives and methods of the use thereof” (Lavipharm S.A., priority 2002, dated 2005).)
